Measured values taken from paper PMC2174402 (Environmental Health Perspectives, 2007).
Where “and” joins values, the source holds several entries; their conditions need not be identical. Equal entries are not always repeated. Where two headings read alike, the source gives them in different places. Marks after values point to notes of the source that are not given here.

Key:
aromatase (CYP19) = target: T1, aromatase (CYP19) (Homo sapiens, UniProt P11511); test: Aromatase activity in JEG-3 choriocarcinoma cells; assay type: cell-based; details: for LOEC, aromatase (inhibited activity) / MOEC, aromatase (inhibited activity) / concentration (range) of significant aromatase inhibition: 18 hr exposure; for Maximum % (maximum down-regulation / maximum inhibition, MI), aromatase: control 10 nM 4-AD set to 100%, at the MOEC
T1 sequence (P11511 1-503): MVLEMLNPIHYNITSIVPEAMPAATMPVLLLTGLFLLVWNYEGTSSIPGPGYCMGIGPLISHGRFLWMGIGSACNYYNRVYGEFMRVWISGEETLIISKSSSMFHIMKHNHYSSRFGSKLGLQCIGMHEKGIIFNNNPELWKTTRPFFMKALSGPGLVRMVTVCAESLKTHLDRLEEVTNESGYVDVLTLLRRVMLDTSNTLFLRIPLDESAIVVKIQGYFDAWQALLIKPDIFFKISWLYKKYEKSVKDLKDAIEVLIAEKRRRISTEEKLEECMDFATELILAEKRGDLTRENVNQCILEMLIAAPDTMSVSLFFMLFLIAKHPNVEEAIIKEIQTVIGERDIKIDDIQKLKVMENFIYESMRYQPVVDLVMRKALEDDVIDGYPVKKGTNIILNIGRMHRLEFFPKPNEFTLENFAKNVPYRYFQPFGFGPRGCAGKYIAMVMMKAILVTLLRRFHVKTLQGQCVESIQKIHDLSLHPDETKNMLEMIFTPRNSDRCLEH

[1] = target: T2, human estrogen receptor (ER) (Homo sapiens, UniProt P03372); test: cell-based; assay type: cell-based; details: for LOEC (lowest effect concentration), ER / MOEC (maximal effect concentration), ER: 24 hr
T2 sequence (P03372 1-595): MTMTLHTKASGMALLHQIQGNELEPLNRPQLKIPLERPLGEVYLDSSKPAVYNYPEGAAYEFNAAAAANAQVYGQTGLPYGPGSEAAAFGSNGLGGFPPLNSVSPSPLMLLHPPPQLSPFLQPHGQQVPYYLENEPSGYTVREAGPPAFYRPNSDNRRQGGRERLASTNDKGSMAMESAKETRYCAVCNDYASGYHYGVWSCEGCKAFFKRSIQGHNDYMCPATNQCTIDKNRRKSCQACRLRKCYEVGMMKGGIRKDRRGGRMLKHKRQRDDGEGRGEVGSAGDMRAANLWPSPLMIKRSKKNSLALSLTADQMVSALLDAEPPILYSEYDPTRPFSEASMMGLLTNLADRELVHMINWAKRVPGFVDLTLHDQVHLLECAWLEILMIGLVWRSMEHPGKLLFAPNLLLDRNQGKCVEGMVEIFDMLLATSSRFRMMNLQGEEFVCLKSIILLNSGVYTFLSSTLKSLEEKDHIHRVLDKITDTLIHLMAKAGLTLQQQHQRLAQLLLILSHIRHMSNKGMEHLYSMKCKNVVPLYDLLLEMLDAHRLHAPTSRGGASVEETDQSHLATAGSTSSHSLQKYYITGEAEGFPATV

[2] = target: T3, human androgen receptor (AR) (Homo sapiens, UniProt P10275); test: cell-based; assay type: cell-based
T3 sequence (P10275 1-920): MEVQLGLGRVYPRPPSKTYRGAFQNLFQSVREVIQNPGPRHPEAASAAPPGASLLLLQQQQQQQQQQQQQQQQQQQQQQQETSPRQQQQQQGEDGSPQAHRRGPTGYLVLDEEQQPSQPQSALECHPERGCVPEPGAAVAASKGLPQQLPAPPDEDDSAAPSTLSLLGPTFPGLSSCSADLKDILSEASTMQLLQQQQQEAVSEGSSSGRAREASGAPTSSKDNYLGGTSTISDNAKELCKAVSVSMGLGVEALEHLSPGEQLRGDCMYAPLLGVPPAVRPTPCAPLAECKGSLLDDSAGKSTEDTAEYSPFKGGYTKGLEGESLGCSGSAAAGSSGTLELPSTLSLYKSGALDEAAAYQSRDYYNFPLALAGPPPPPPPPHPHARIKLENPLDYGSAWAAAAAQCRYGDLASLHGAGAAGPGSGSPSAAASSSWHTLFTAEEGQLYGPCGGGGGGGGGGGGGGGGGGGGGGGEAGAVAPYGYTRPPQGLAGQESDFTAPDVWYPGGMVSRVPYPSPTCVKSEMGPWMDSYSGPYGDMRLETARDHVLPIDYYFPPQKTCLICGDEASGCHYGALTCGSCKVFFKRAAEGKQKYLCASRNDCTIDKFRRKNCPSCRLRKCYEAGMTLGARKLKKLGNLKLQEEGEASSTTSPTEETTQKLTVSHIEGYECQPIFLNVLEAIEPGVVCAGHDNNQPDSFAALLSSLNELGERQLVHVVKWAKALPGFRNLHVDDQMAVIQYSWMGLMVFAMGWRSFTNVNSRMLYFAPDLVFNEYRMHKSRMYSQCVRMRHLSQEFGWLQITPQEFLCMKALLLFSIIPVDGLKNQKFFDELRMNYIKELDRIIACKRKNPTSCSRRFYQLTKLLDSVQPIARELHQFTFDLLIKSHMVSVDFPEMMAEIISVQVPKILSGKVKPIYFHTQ

CHO cells = test: Cytotoxicity in the AR assay; assay type: cell-based, Chinese hamster; details: for Cytotox (M), AR assay: pSVAR13
Hepa1.12cR cells = test: Cell cytotoxicity / proliferation for the AhR-CALUX assay
[3] = target: aryl hydrocarbon receptor (AhR) (Mus musculus, UniProt P30561); test: AhR-CALUX
JEG-3 cells = test: Cell cytotoxicity for the aromatase assay; assay type: cell-based, human
[4] = co-exposure with 0.1 nM R1881, CHO cells
[5] = chemical alone, Hepa1.12cR cells

Chain of aryl hydrocarbon receptor (AhR) (P30561 10-805 limits assumed): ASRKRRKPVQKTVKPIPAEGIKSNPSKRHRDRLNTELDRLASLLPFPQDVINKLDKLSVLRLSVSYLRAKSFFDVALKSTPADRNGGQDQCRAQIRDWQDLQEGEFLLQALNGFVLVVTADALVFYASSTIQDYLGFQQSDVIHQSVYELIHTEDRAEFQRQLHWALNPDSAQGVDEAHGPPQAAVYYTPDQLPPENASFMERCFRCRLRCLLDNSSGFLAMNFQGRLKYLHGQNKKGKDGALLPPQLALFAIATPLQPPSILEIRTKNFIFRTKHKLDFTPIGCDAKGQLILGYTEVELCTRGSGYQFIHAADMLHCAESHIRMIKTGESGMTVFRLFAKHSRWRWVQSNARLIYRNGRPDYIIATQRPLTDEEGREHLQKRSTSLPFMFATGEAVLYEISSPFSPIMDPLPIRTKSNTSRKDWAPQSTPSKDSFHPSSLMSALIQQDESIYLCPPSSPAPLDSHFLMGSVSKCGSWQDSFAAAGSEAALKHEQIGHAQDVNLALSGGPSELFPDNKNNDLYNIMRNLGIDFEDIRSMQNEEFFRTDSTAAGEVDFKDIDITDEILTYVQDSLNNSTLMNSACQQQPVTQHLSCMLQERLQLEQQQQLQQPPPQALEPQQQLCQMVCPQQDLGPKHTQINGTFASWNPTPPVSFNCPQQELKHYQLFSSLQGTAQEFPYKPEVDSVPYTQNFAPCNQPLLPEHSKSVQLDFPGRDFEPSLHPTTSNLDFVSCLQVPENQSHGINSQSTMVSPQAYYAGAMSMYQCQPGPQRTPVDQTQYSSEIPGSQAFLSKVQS
Chain of aryl hydrocarbon receptor (AhR) (P53762 whole entry partner): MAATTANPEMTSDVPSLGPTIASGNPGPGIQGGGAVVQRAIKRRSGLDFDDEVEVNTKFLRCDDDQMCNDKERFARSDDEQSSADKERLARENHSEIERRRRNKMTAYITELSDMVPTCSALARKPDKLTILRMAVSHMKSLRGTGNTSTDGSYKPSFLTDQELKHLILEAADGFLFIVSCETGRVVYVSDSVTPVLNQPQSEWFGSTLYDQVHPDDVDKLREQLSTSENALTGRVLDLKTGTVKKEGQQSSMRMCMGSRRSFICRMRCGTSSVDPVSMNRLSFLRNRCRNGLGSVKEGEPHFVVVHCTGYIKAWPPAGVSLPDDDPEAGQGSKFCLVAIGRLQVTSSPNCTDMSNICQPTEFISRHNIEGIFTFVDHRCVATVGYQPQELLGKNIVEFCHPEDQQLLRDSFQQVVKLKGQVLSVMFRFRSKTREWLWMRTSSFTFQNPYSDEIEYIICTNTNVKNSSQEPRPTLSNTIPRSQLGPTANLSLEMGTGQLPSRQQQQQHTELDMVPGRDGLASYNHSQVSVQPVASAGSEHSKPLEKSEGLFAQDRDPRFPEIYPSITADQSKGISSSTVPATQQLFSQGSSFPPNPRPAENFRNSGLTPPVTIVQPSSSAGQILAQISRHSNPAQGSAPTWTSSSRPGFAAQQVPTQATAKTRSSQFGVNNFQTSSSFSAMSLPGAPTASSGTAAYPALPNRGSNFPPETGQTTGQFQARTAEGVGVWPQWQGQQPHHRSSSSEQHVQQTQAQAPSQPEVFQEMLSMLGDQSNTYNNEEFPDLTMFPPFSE

| SMILES | LOEC, aromatase (inhibited activity) (aromatase (CYP19); JEG-3 cells) | MOEC, aromatase (inhibited activity) (aromatase (CYP19); JEG-3 cells) | Maximum % (maximum down-regulation / maximum inhibition, MI), aromatase (aromatase (CYP19)) | LOEC (lowest effect concentration), ER ([1]; chemical alone, MVLN cells) | MOEC (maximal effect concentration), ER ([1]; chemical alone, MVLN cells) | concentration (range) of significant aromatase inhibition (aromatase (CYP19); JEG-3 cells) | concentrations of cytotoxicity, AR assay (CHO cells) | Cytotox (M), AR assay (CHO cells) | Cytotox (M), AhR assay (Hepa1.12cR cells) | LOEC, AhR (increased activity) [3, 5] | Cytotox (M), ER assay (MVLN cells) | other results |
| --- | --- | --- | --- | --- | --- | --- | --- | --- | --- | --- | --- | --- |
| C[C@]12CCC(=O)C(O)=C1CC[C@@H]1[C@@H]2CC[C@]2(C)C(=O)CC[C@@H]12 [4-AOD, 4-androsten-4-ol-3,17-dione, reference compound] | 1 nM | 100 µM | 100% | – | – | – | – | – | – | – | – | EC50 (aromatase (CYP19)): 6 nM; IC50 (aromatase (CYP19)): 6 nM; EC100 of aromatase inhibitor control (aromatase (CYP19); JEG-3 cells): 10 µM; REP (relative potency), aromatase (aromatase (CYP19); REP-aromatase = LOEC 4-AOD/LOEC test compound): 1 |
| CC(C)(c1ccc(O)cc1)c1ccc(O)cc1 [BPA, Bisphenol A] | 100000 nM | 100 µM | 59% | 100 nM | 10 µM | 10^−4 M | > 40 µM | > 4e-05 M | > 10^−4 M | – | – | response on co-treatment with 25 pM E2 at 50 μM [1]: significant decreased response; concentration range of ER-mediated (estrogenic) response ([1]; chemical alone, MVLN cells): 10^−8 to 5 × 10^−5 M; IC50 [2]: 1000 nM; concentration range of significant antiandrogenic effect ([2]; co-exposure with 0.1 nM R1881): 0.60 to 20 µM; LOEC, AR (inhibited activity) [2, 4]: 600 nM; MOEC, AR (inhibited activity) [2, 4]: 20 µM; Maximum % (maximum down-regulation / maximum inhibition, MI), AR ([2]; control inducer 0.1 nM R1881 set to 100%): 90%; concentration of decreased TCDD-induced AhR activity [3]: 10^−4 M; concentration (range) of decreased AhR activity, alone ([3]; chemical alone): 5 × 10^−5 to 10^−4 M; LOEC, AhR (inhibited activity) ([3]; inhibited activity): 5 × 10^−5 ^d M |
| Clc1cc2c(cc1Cl)Oc1cc(Cl)c(Cl)cc1O2 [TCDD, 2,3,7,8-tetrachlorodibenzo-p-dioxin, reference compound] | – | – | – | – | – | – | – | – | – | 0.002 nM | – | AhR-CALUX activity relative to solvent control ([3]; 60 pM TCDD alone, 0.1% DMSO set to 1, mean ± SD): 14.84 ± 6.26 and 13.89 ± 7.32; MOEC, AhR (increased activity) [3, 5]: 10 nM; REP (relative potency), AhR ([3]; relative to TCDD): 1 |
| CCCCCCCCCc1ccc(O)cc1 [nNP, 4-n-nonylphenol] | 1 nM | 10 µM | 71% | 10 nM | 10 µM | 10^−9–10^−5 M | > 40 µM | > 4e-05 M | – | 50 nM | 2.5e-05 M | EC50 [1]: 8900 nM; concentration giving further increase of the 25 pM E2-induced activity level [1]: 5 × 10^−6 M; concentration at which cytotoxicity was observed, ER assay (MVLN cells): 25 µM; concentration of decreased TCDD-induced AhR activity ([3]; co-treatment with TCDD-EC50 (60 pM)): 10^−4 M |
| CCCCCCCCc1ccc(O)cc1 [nOP, 4-n-octylphenol] | – | – | – | – | – | – | – | > 2e-05 M | > 10^−4 M | – | 5e-05 M | Cytotox (M), aromatase assay (JEG-3 cells): 10^−4 M |
